From patent publication US7534766B2, “Glucuronide metabolites and epimers thereof of tigecycline” (Wyeth, priority 2004, dated 2009)

Tests used:
[1] = LC/MS characterization of tigecycline related compounds in human serum, urine and feces; assay type: in vivo; conditions: human, after single 50 mg IV [14C]tigecycline dose
From the text: Three HPLC conditions were used during LC/MS analysis in this study. LC/MS Condition 1 was used for the majority of sample analyses for metabolite characterization and to isolate metabolite M3a from urine. LC/MS Condition 2 was used on selected samples to increase the retention time of glucuronide metabolites and for a co-chromatography experiment to confirm the identity of metabolites M8 and M9. LC/MS Condition 3 was used to analyze the polar metabolite M3a isolated from human urine.
The UV detector was set to monitor 340-360 nm. […] The flow rate was 0.2 mL/min. […] The linear mobile phase gradient is shown below.
Separations were accomplished on a Phenomenex Luna C18(2) column (250×2.0 mm, 5 μm) with a Uniguard C18 guard column (10×2 mm) (ThermoHypersil-Keystone). The flow rate was 0.2 mL/min. […] Mobile phase A was 0.02% trifluoroacetic acid in water (v/v) and mobile phase B was 0.02% trifluoroacetic acid in acetonitrile (v/v). The linear mobile phase gradient is shown below.
A Micromass Quattro Ultima triple quadrupole mass spectrometer (Waters Corp.) was operated in the positive ionization mode. LC/MS analysis with electrospray ionization (ESI) was conducted using a Z-spray interface. ESI-MS analysis of individual fractions from selected samples was conducted by direct infusion into a nanospray interface. Settings for the mass spectrometer are listed below.
Urine and feces samples were analyzed for tigecycline metabolites by LC/MS/MS analysis for precursors of product ions characteristic of tigecycline. Additionally, potential metabolites of tigecycline were searched for in the LC/MS data based upon results from previous studies in animals and humans.
Serum extracts were analyzed for tigecycline and selected metabolites by LC/MS/MS in the selected reaction monitoring (SRM) mode (LC/SRM) to reduce interference from endogenous components. […] The following tigecycline related components were monitored.

[2] = Stability of [14C]tigecycline during extraction from control human fecal homogenates; assay type: in vitro ADME
From the text: Similar results were observed following the extraction of [^14C]tigecycline from control fecal homogenates. In these samples, [^14C]tigecycline accounted for 94% of the radioactivity prior to extraction and 68% following the extraction. There was a corresponding increase in the epimer of tigecycline, which represented 4% of the radioactivity prior to extraction and 23% following the extraction. […] Other minor products represented less than 1% of the radioactivity prior to the extraction and 4% following the extraction.
The stability of [^14C]tigecycline during the extraction process was determined in control human fecal homogenates spiked with [^14C]tigecycline at 5 μg/g of homogenate. […] Samples were extracted and analyzed by HPLC with radioactivity flow detection.

[3] = LC/MS detection of tigecycline and its metabolites in humans, dogs and/or rats; conditions: LC/MS of human serum, urine, feces and rat and dog plasma and urine
Description: Characterization of the tigecycline metabolites in human serum, urine and feces, and rat and dog plasma and urine was performed using LC/MS analysis (Table 5).

[4] = Mass balance: percent of [14C]tigecycline dose excreted in human urine and feces
Description: The concentration of tigecycline-related components in serum, urine and feces was calculated based on the total radioactivity concentrations reported elsewhere. These concentrations were converted to ng-tigecycline equivalents using the specific activity of the dose (1.00 μCi/mg). Using this value, the concentrations of the specific components were then estimated based on the distribution of radioactivity in the radiochromatograms.
An open-label, inpatient, multiple-dose tigecycline, single-dose [^14C]tigecycline metabolic disposition and mass balance study was performed in six healthy male volunteers. The clinical protocol called for twelve subjects. Of these twelve, six received the radioactive dose (subjects 1, 4, 5, 6, 7, and 8 with subject 8 later dropping out of the study.) Eligible subjects were selected based on inclusion/exclusion criteria, medical history, physical examination and additional procedures outlined in the study protocol. Each subject received a 100 mg loading dose on the morning of Day 1, followed by a 50 mg maintenance dose every 12 hours for an additional 5 doses. On the morning of study Day 4, six subjects received a single 50 mg dose of [^14C]tigecycline (50 μCi). Each tigecycline dose was administered via a 30-minute intravenous infusion.
Serum samples were collected for metabolite profiling prior to tigecycline dosing and 1, 4, 8, 24 and 48 hours following the [^14C]-labeled dose. For metabolite profiling, urine samples were collected at 0-4, 4-8, 8-24 and 24-48 hours and fecal samples were collected up to 48 hours following the [^14C]-labeled dose. Serum and urine samples, and fecal homogenates were shipped on dry ice to the Biotransformation Division of Drug Safety and Metabolism, Wyeth Research, Collegeville, Pa. The details of the sample collection and sample storage are described in the mass balance portion of the study. The 24-48 hour urine and fecal samples for subject #6 were incomplete since the subject withdrew from the study. While samples from this subject were used for metabolite profiling, the samples were not included in the mass balance calculations.

[5] = Estimated concentrations in rabbit serum by LC/MS (SRM) after intravenous tigecycline; assay type: in vivo, New Zealand White rabbit
Description: Three female New Zealand White rabbits, weighing between 3.9 and 4.3 kg at the time of dosing, were used. Animals were given food and water ad libitum. Animals were individually housed in standard cages. Rabbits were dosed at Wyeth Research, Chazy, N.Y. and samples shipped frozen to the Wyeth Research Biotransformation Department, Collegeville, Pa.
Standard curves for tigecycline, M3 and M9 were prepared in rabbit serum. Standard curves were prepared by adding the internal standard and synthetic tigecycline and metabolite standards to control plasma. Standard curve samples were prepared with tigecycline concentrations of 0, 10, 20, 50, 100, 200, 500 and 1000 ng/mL, with the linear range being […]. For 9-aminominocycline (M3), the concentrations were 0, 1, 5, 10, 20, 50, 100 and 200 ng/mL, with the linear range being 10 to 200 ng/mL. For N-acetyl-9-aminominocycline (M9), the concentrations were 1.6, 3.2, 6.4, 16, 32, 64 and 96 ng/mL, with the linear range being from 3.2 to 96 ng/mL. These samples were processed and analyzed as described above.
The column temperature was 25° C. The flow rate was 0.2 mL/min. […] Gradient 1 was used for metabolite identification (qualitative analysis).
Micromass MassLynx (version 4.0, Waters Corp.) was used for analysis of LC/MS data. The concentrations of tigecycline, 9-aminominocycline (M3) and N-acetyl-9-aminominocycline (M9) in serum were calculated based on the analyte to internal standard peak area ratios in the samples as compared to the standard curves generated in rabbit serum.

[6] = Safety and tolerability of intravenous tigecycline in healthy male volunteers; assay type: in vivo, human; conditions: IV 100-mg dose, five 50-mg doses, single 50-mg [14C]tigecycline dose
From the text: The clinical protocol called for twelve subjects.

SMILES: CC(C)(C)NCC(=O)O [Metabolite M3a, t-butylaminoacetic acid]
- Matrix in which the compound was observed [1]: S, U, F
- increase in percent of the radioactivity, control fecal homogenates ([2]; during the extraction): 4%
- percent of the radioactivity, control fecal homogenates ([2]; following the extraction): 5%
- percent of the radioactivity, control fecal homogenates ([2]; prior to extraction, 5 μg/g of homogenate): 1%
- Species in which detected [3]: R, D, H

SMILES: CN(C)c1cc(NC(=O)CNC(C)(C)C)c(O)c2c1C[C@H]1C[C@H]3[C@H](N(C)C)C(O)=C(C(N)=O)C(=O)[C@@]3(O)C(O)=C1C2=O [Tigecycline]
- Percentage of Dose (mean ± standard deviation) excreted ([4]; Feces (0–48 hours), n = 5): 9.9 ± 7.9%
- Percentage of Dose (mean ± standard deviation) excreted ([4]; Total Urine (0-48 hours), n = 5, ND = not detected): 14.8 ± 2.9%
- Percentage of Dose (mean ± standard deviation) excreted ([4]; Total urine + feces (0–48 hours), n = 5): 24.7 ± 8.7%
- Percentage of Dose (mean ± standard deviation) excreted ([4]; Urine 0–4 hours, ND = not detected): 7.1 ± 0.9%
- Percentage of Dose (mean ± standard deviation) excreted ([4]; Urine 4–8 hours, ND = not detected): 2.4 ± 1.1%
- Percentage of Dose (mean ± standard deviation) excreted ([4]; Urine 8–24 hours, ND = not detected): 3.3 ± 1.1%
- Percentage of Dose (mean ± standard deviation) excreted ([4]; Urine 24–48 hours, n = 5, ND = not detected): 1.7 ± 0.7%
- Matrix in which the compound was observed [1]: S, U, F
- concentration at 0.5 h ([5]; 0.5 hr after 4 mg/kg IV tigecycline, pooled serum, female New Zealand White rabbits): 2020 ng/mL
- concentration at 2 h ([5]; female, New Zealand White, 2 hr after 4 mg/kg IV tigecycline, pooled serum): 1040 ng/mL
- concentration at 6 h ([5]; female, New Zealand White, 6 hr after 4 mg/kg IV tigecycline, pooled serum): 287 ng/mL
- concentration at 1 h ([5]; female, New Zealand White, serum, at 1 hour, 4 mg/kg IV tigecycline): 2020 ng/mL
- adverse event frequency: dyspepsia [6]: 17%
- adverse event frequency: injection site inflammation [6]: 17%
- adverse event frequency: nausea [6]: 75%
- adverse event frequency: vomiting [6]: 50%
- safety and tolerability [6]: generally safe and well tolerated
- Species in which detected [3]: R, D, H
